Assay results as given in patent US11673877B2 (priority 2017, dated 2023).
≈ marks a conversion by molar mass, not a printed value. Like-named read-outs stand apart in the source and are kept apart here.

Assays:
[1] = solid form, no method given
[2] = for hygroscopicity from DVS curve: 5 to 95% RH; for solid form by XRPD after the DVS experiment: after adsorption/desorption cycle 5-95-5% RH
Protocol: DVS analyses were carried out TA Instruments Q5000 Dynamic Vapor Sorption analyzer. The instrument was calibrated with standard weights and a sodium bromide standard for humidity. Samples were analyzed at 25° C. with a maximum equilibration time of 60 minutes in 10% relative humidity (RH) steps from 5 to 95% RH (adsorption cycle) and from 95 to 5% RH (desorption cycle).
After the experiment the samples were analyzed by XRPD.

[3] = for water activity at which the form is the preferred form: slurry in water/DMSO mixtures, 2 days
Protocol: Powder samples were prepared in a low background Si holder using light manual pressure to keep the sample surfaces flat and level with the reference surface of the sample holder. Each sample was analyzed from 2 to 40° 2θ using a continuous scan of 6° 2θ per minute with an effective step size of 0.02° 2θ. Unless otherwise noted, XPRD studies were performed at room temperature and room humidity.
Slurry experiments designed to provide a range of water activities were carried out in solvent mixtures containing water and dimethylsulfoxide (Table 1). […] The samples were analyzed while wet to avoid changes, such as the hydrate converting to the anhydrate, from drying.

PARP = conditions: read-out: inhibition of PARP activity EC50; whole cell assay; cited from earlier work
physchem = conditions: aqueous solution, aqueous buffer
[4] = system: cancer cells with mutant BRCA-1 and BRCA-2; conditions: read-out: inhibition of proliferation CC50; cited from earlier work

NC(=O)c1cccc2cn(-c3ccc([C@@H]4CCCNC4)cc3)nc12 [2-{4-[(3S)-piperidin-3-yl]phenyl}-2H-indazole-7-carboxamide, reference compound]
hygroscopicity [1]: highly hygroscopic

NC(=O)c1cccc2cn(-c3ccc([C@@H]4CCCNC4)cc3)nc12 [Form III, 2-{4-[(3S)-piperidin-3-yl]phenyl}-2H-indazole-7-carboxamide]
hygroscopicity from DVS curve ([2]; 25° C.): very hygroscopic
solid form by XRPD after the DVS experiment [2]: converted to the monohydrate
DVS weight gain ([2]; up to 95% RH, 25° C.): approximately 15.8%
water activity at which the form is the preferred form [3]: ≤ 0.11

NC(=O)c1cccc2cn(-c3ccc([C@@H]4CCCNC4)cc3)nc12 [Niraparib, 2-{4-[(3S)-piperidin-3-yl]phenyl}-2H-indazole-7-carboxamide]
solubility (physchem): 0.7 to 1.1 mg/mL (≈ 2180 to 3430 µM)
CC50 [4]: 10 to 100 nM

Cc1ccc(S(=O)(=O)O)cc1.NC(=O)c1cccc2cn(-c3ccc([C@@H]4CCCNC4)cc3)nc12 [niraparib tosylate, 2-{4-[(3S)-piperidin-3-yl]phenyl}-2H-indazole-7-carboxamide tosylate]
XRPD Result ([3]; 0 % water in DMSO, water activity 0, 2 days): anhydrate
XRPD Result ([3]; 17.2 % water in DMSO, water activity 0.22, 2 days): hydrate
XRPD Result ([3]; 27.6 % water in DMSO, water activity 0.38, 2 days): hydrate
XRPD Result ([3]; 43.3 % water in DMSO, water activity 0.60, 2 days): hydrate
XRPD Result ([3]; 82.8 % water in DMSO, water activity 0.84, 2 days): hydrate
XRPD Result ([3]; 100.0 % water, water activity 1.00, 2 days): hydrate

Cc1ccc(S(=O)(=O)O)cc1.NC(=O)c1cccc2cn(-c3ccc([C@@H]4CCCNC4)cc3)nc12 [Niraparib tosylate monohydrate, 2-{4-[(3S)-piperidin-3-yl]phenyl}-2H-indazole 7-carboxamide 4-methylbenzenesulfonate hydrate (1:1.1)]
hygroscopicity [1]: non-hygroscopic
hygroscopicity from DVS curve ([2]; 25° C.): not hygroscopic
solid form by XRPD after the DVS experiment [2]: remained unchanged
water activity at which the form is the preferred form [3]: ≥ 0.22
